Measurements: publication PMC10245392, “Fed- and Fasted-State Performance of Pretomanid Amorphous Solid Dispersions Formulated with an Enteric Polymer” (Molecular Pharmaceutics, 2023)
In brackets after ≈: the same amount, converted by molar mass. Several values for one entry are separate records, joined by “and”; a condition that tells them apart may be missing. Equal values may be shown once. Read-outs that look alike come from different tables or passages of the source.

Legend:
[1] = physchem
[2] = Drug nucleation induction time (UV extinction at 440 nm); assay type: physicochemical; conditions: for induction time at 160 μg/mL: no polymer, 37 °C
[3] = physchem; conditions: kinetic from dmso stock
[4] = monkeys, PTM suspension in 0.5% sodium carboxymethyl cellulose; cited from earlier work
[5] = rats, PTM with hydroxypropyl-β-cyclodextrin; cited from earlier work
[6] = Glass transition temperature by DSC; assay type: physicochemical; conditions: for reduced glass transition temperature (Tg/Tm): calculated as Tg/Tm
Protocol: The glass transition temperature (Tg) of ASD samples was measured by a TA Q2000 differential scanning calorimeter (DSC) equipped with an RCS90 refrigeration unit (TA Instruments, New Castle, DE). The temperature calibration was performed using indium and tin, while enthalpy calibration was conducted with indium. The samples (5–10 mg) were added to aluminum pans with a pinhole lid (Tzero pan, TA Instrument, DE). The sample was equilibrated at −20 °C and heated from −20 to 210 °C at 5 °C/min then cooled back down to −20 °C at 10 °C/min under a nitrogen flow of 50 mL/min. The heating and cooling cycle was repeated three times to remove residual solvent and thermal history, and the last cycle was used for analysis.

[7] = guinea pig, in vivo; cited from earlier work
[8] = not given; remark: listed apart in the source
[9] = cited from earlier work
[10] = humans, 200 mg PTM with high-calorie, high-fat meal; cited from earlier work
[11] = the highest pKa value at 25 °C; ref 42 and references of Table S2; cited from earlier work

Which solubility thermodynamic [1] does the source give for `O=[N+]([O-])c1cn2c(n1)OC[C@@H](OCc1ccc(OC(F)(F)F)cc1)C2` [PTM, Pretomanid] here?
Its solubility thermodynamic is 15 to 18 µg/mL (≈ 41.8 to 50.1 µM).

What about the solubility ([1]; 37 °C, pH 1.6, simulated gastric fluid, thermodynamic from solid) of the same molecule?
The solubility was 15.2 ± 1.4 µg/mL (≈ 42.3 µM).

What about the solubility ([1]; 37 °C, pH 3, aqueous buffer, thermodynamic from solid) of the same molecule?
The solubility was 17.8 ± 0.3 µg/mL (≈ 49.5 µM).

And the solubility ([1]; 37 °C, pH 5, aqueous buffer, thermodynamic from solid)?
The solubility was 16.8 ± 0.1 µg/mL (≈ 46.8 µM).

And the solubility ([1]; 37 °C, pH 5.8, aqueous buffer, thermodynamic from solid)?
Its solubility is 17 ± 0.3 µg/mL (≈ 47.3 µM).

What about the solubility ([1]; 37 °C, pH 5.8, fessif, thermodynamic from solid) of the same molecule?
Its solubility is 108.1 ± 0.1 µg/mL (≈ 301 µM).

And the solubility ([1]; 37 °C, pH 6.5, aqueous buffer, thermodynamic from solid)?
The solubility was 16.2 ± 1.4 µg/mL (≈ 45.1 µM).

What about the solubility ([1]; 37 °C, pH 6.5, fassif, thermodynamic from solid) of the same molecule?
The solubility was 53.8 ± 4 µg/mL (≈ 150 µM).

What about the solubility ([1]; pH 5.8) of the same molecule?
Its solubility is roughly 110 µg/mL (≈ 306 µM).

And the induction time [2]?
The induction time was 77.6 ± 13.6 min and ~77 min.

What about the “induction time at 160 μg/mL” value ([2]; FaSSIF V1 (pH 6.5)) of the same molecule?
Its value is 0.9 ± 0.3 min.

What about the “induction time at 160 μg/mL” value ([2]; HCl solution (pH 1.6)) of the same molecule?
The value was 1.6 ± 0.2 min.

And the induction time ([2]; PTM 80 μg/mL, PB (pH 6.5), 100 μg/mL HPMC)?
The induction time was roughly 22 min.

And the “nucleation induction time in solution” value ([2]; media of Table 2, no polymer)?
Its value is “less than 2 min”.

And the “induction time (no crystallization observed up to)” value ([2]; pH 6.5)?
Its value is greater than 1000 min.

And the “induction time at 160 μg/mL” value ([2]; phosphate buffer (pH 3.0))?
Its value is 1.3 ± 0.1 min.

And the “induction time at 160 μg/mL” value ([2]; phosphate buffer (pH 5.0))?
The value was 1.6 ± 0.2 min.

And the “induction time at 160 μg/mL” value ([2]; phosphate buffer (pH 6.5))?
Its value is 1.4 ± 0.2 min.

What about the solubility ([3]; pH 1.6, simulated gastric fluid) of the same molecule?
The solubility was 141 ± 3.7 µg/mL (≈ 392 µM).

And the solubility ([3]; pH 3, aqueous buffer)?
Its solubility is 143 ± 2.4 µg/mL (≈ 399 µM).

What about the solubility ([3]; pH 5, aqueous buffer) of the same molecule?
Its solubility is 160 ± 5.7 µg/mL (≈ 444 µM).

And the solubility ([3]; pH 6.5, aqueous buffer)?
Its solubility is 166 ± 6.2 µg/mL (≈ 462 µM).

What about the solubility ([3]; pH 6.5, fassif) of the same molecule?
Its solubility is 308 ± 12 µg/mL (≈ 857 µM).

What about the mean oral bioavailability [4] of the same molecule?
The mean oral bioavailability was 19%.

What about the mean oral bioavailability [5] of the same molecule?
Its mean oral bioavailability is 52%.

What about the “reduced glass transition temperature (Tg/Tm)” value [6] of the same molecule?
Its value is 0.67.

And the “Tg (glass transition temperature)” value ([6]; neat drug)?
The value was 10 °C.

And the “factor of increase of equilibrium solubility” value (pH 5.8)?
The value was roughly 6.

What about the “factor of increase of equilibrium solubility” value (pH 6.5) of the same molecule?
The value was roughly 3.

And the systemic exposure [7]?
The systemic exposure was 6.7–13.5%.

What about the “A/C ratio (amorphous/crystalline solubility ratio)” value ([8]; HCl solution (pH 1.6)) of the same molecule?
Its value is 9.3.

And the “amorphous/crystalline solubility (A/C) ratio” value ([8]; buffer solutions, overall)?
The value was 8–10.

What about the “A/C ratio (amorphous/crystalline solubility ratio)” value ([8]; phosphate buffer (pH 3.0)) of the same molecule?
The value was 8.1.

What about the “A/C ratio (amorphous/crystalline solubility ratio)” value ([8]; phosphate buffer (pH 5.0)) of the same molecule?
The value was 9.5.

And the “A/C ratio (amorphous/crystalline solubility ratio)” value ([8]; phosphate buffer (pH 6.5))?
Its value is 10.2.

And the water solubility [9]?
Its water solubility is 10 to 20 µg/mL.

And the “increase in AUC0-inf with food” value [10]?
The value was 88%.

What about the “increase in Cmax with food” value [10] of the same molecule?
Its value is 76%.

Which results are given for `C[C@]1(COc2ccc(N3CCC(Oc4ccc(OC(F)(F)F)cc4)CC3)cc2)Cn2cc([N+](=O)[O-])nc2O1` [delamanid]?
reduced glass transition temperature (Tg/Tm) [6]: 0.64; Tg (glass transition temperature) ([9]; neat drug): ~43 °C

For `CN(C)CCO` [2-Dimethylaminoethanol], which pKa [11] is on record?
Its pKa is 9.23.
